From patent US12527764B2, “Methods and compositions for treating androgen receptor deficient, androgen receptor low, and castration-resistant prostate cancers” (FRED HUTCHINSON CANCER CENTER, priority 2019, dated 2026)

How the values were obtained:
[1] = tested on: primary intact (DHT+) Pten^L/L cells; assay: IncuCyte in vitro proliferation assay, primary intact Pten^L/L cells; type: cell-based, mouse; conditions: 48 hours, same drug concentrations as in castrate cells
Procedure: (§1) Human APIPC cell lines were provided by P.S.N., and grown as previously described (11). PC3-4EBP1^M, VCaP, 22Rv1, C4-2, and LNCaP cells were cultured in RPMI-1640 with 10% FBS or phenol-red free RPMI with 10% charcoal stripped FBS (Gemini). Intact/castrate […] mouse prostates were harvested at 16 weeks of age, micro-dissected, and minced using a scalpel. Tissue chunks were incubated in 5 mg/ml collagenase II (Gibco) in Dulbecco's modified Eagle's medium for 1 hour at 37° C., followed by 5 min further digestion with TrypLE (Thermo Fisher). The dissociated cells were passed through a 40 µm nylon mesh (Falcon) to obtain single cells. Twenty thousand cells were embedded in 50 μl of Matrigel (Corning) and plated on 24-well ultra-low attachment plates (Corning). Medium components include the following: Advanced Dulbecco's Modified Eagle Medium containing B-27 supplement (Gibco), 1.25 mM N-Acetyl-L-cysteine (Sigma), 50 ng/ml EGF (Peprotech), 200 nM A83-01 (Tocris Bioscience), 500 ng/ml R-spondin1 (conditioned medium and R-spondin1 expressing plasmid provided by Y.C.), 10 μM Y-27632 (Sigma), and 100 ng/ml Noggin (Peprotech). […] Established organoids were passaged as 3D organoids or cultured as 2D cells. […] Cell proliferation was monitored by analyzing the occupied area (% confluence) of cell images over time. […]

[2] = tested on: primary castrate (DHT−) Pten^L/L cells; assay: IncuCyte in vitro proliferation assay, primary castrate Pten^L/L cells; type: cell-based, mouse; conditions: 48 hours, same drug concentrations as in intact cells
Procedure: as §1

[3] = tested on: AR− APIPC prostate cancer cells; assay: IncuCyte in vitro proliferation assay, AR+ parental versus AR− APIPC prostate cancer cells; type: cell-based, human; conditions: AR-null APIPC cells compared with parental (AR+) cells, 48 hours
Procedure: as §1

[4] = molecular target: T1, eIF4E-eIF4G interaction (eIF4F complex) (Mus musculus, UniProt P63073); assay: eIF4E-eIF4G proximity ligation assay in intact and castrate Pten^L/L cells; type: cell-based; conditions: 50 μM, 24 hours
T1 construct: Pten^L/L intact and castrate cells were treated with 50 μM 4E2RCat (MedChemExpress) and 20 μM 4EGI-1 (Selleckchem) for 24 hours; endogenous in cells; host or cells: primary intact and castrate Pten L/L mouse prostate cancer cells
T1 sequence (P63073 whole entry, one chain of several): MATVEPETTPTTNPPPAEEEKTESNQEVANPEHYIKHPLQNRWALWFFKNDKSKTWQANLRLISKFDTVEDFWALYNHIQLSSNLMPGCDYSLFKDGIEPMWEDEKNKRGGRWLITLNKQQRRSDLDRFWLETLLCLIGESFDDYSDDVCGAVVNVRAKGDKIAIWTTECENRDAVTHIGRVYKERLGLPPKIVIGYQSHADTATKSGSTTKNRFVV
Procedure: (§2) The in-situ proximity ligation assay (PLA) was optimized to detect eIF4E-eIF4G or eIF4E-4EBP1 interactions in intact/castrate Pten^L/L and castrate Pten^L;4ebp1^M FFPE tissue sections and adherent cells. FFPE sections were deparaffinized, rehydrated, and subjected to antigen retrieval in a decloaking chamber at 95° C. for 30 min in Tris-based antigen unmasking solution, pH 9 (Vector). After 30 min blocking, primary antibody incubation was performed at 4° C. overnight: eIF4E (SCBT), eIF4G (CST), and 4EBP1 (CST).
(§3) Adherent cells were grown on coverslips placed in 6-well plates until 60-70% confluent. […] Permeabilized cells were washed using 1× wash buffer followed by 1 hour blocking in a humidity chamber at 37° C. Next, cells were incubated with primary antibodies: eIF4G (CST) and eIF4E (BD Biosciences) for 2 hours at room temperature.
(§4) After incubation with primary antibody, both FFPE tissues and adherent cells were subjected to incubation with secondary antibodies conjugated to oligonucleotides (PLA plus/minus probes) for 1 hour at 37° C. The two hybridized oligonucleotides were joined in a closed circle using a ligase at 37° C. for 30 min. The DNA was then amplified with rolling circle amplification, and detection of the amplicons was carried out using the Brightfield detection kit (Sigma).

[5] = molecular target: eIF4E-eIF4G interaction (eIF4F complex) (Homo sapiens, UniProt P06730); assay: eIF4E-eIF4G proximity ligation assay in AR+ parental and AR− APIPC cells; type: cell-based; conditions: 10 μM, 24 hours
Sequence of eIF4E-eIF4G interaction (eIF4F complex) (Homo sapiens, UniProt P06730) (P06730 whole entry, one chain of several): as the sequence (P63073 whole entry, one chain of several) above, with T12P, P16T, A17T, D174E counted along it
Procedure: as §2, §3, §4

[6] = tested on: 4ebp1 transcript expression; assay: 4ebp1 transcript expression in castrate Pten^L/L cells under enzalutamide; type: cell-based, mouse; conditions: further inhibition of AR
Procedure: Total RNA was isolated using RNeasy Plus Mini Kit (Qiagen) and reverse-transcribed with iScript Reverse Transcription Supermix (Bio-Rad). cDNA was diluted 1:1 with water. Quantitative PCR was performed with 1 μl cDNA using SsoAdvanced SYBR Supermix (Bio-Rad) with primer sets specific for Ar, 4ebp1, Cacul1, Denr, Klf5, Rps15, Gapdh, luciferase, RPS19, and actin (Table 3). Normalized mRNA expression was calculated using the comparative Ct method.

AR− APIPC xenograft = AR− APIPC xenograft preclinical trial; type: in vivo; conditions: 15 mg/kg intraperitoneal
Procedure: (§5) 1×10^6 AR+ parental and AR− APIPC cells were resuspended 1:1 in Matrigel (Corning): RPMI-1640 (Gibco) and subcutaneously injected into the flanks of intact or castrate NOD-scid IL2Rgamma^null mice respectively. 1×1×1 mm^3 of LuCaP 173.2 tumor chunks were implanted into the flank of castrate mice. Tumor volume was calculated using the formula (L(W^2))/2, where L is the length of the tumor and W the width. When tumors reached 100 mm^3, animals were randomized to receive intraperitoneal injections of 15 mg/kg 4E1RCat (Selleckchem) or vehicle (5.2% PEG400 and 5.2% TWEEN80 in ddH2O), Monday-Friday.

[7] = tested on: AR-null non-neuroendocrine LuCaP 173.2 PDX; assay: LuCaP 173.2 PDX preclinical trial; type: in vivo; conditions: 15 mg/kg intraperitoneal
Procedure: as §5

[8] = tested on: AR+ parental APIPC xenograft; assay: AR+ parental APIPC xenograft preclinical trial; type: in vivo, intact NOD-scid IL2Rgamma^null mice; conditions: uncastrated mice, 15 mg/kg intraperitoneal, versus vehicle
Procedure: as §5

[9] = tested on: de novo protein synthesis; conditions: castrate Pten^L/L primary prostate cancer cells, 1 nM DHT add back, 48 hours
Procedure: FIG. 9D is a representative western blot of puromycin incorporation with or without addition of 1 nM DHT for 48 hours, which increases AR signaling, in castrate Pten^L/L primary prostate cancer cells (representative of 4 biological replicates).
Cells were lysed for 30 min on ice in lysis buffer containing 150 mM NaCl, 50 mM Tris, 4 mM KCl, 1 mM MgCl2 1 mM Na3VO4 10% glycerol, 1% Nonidet P-40, supplemented with phosphatase and protease inhibitor cocktails (Roche). Lysates were cleared by centrifugation at 12000 rpm for 15 min at 4° C. Supernatants were removed and assayed for protein concentration using the Protein Assay Dye Reagent (Bio-Rad). Equal amounts of proteins were subjected to SDS-PAGE and transferred to PVDF membranes (Bio-Rad). Membranes were blocked with 5% non-fat milk in PBS-Tween and were subsequently incubated with the following antibodies at 4° C. overnight: AR (N-terminus, Abcam), AR (C-terminus, SCBT), AR (GeneTex), p-AKT (S473, CST), p-AKT (T308, CST), eIF4E (BD Biosciences), eIF4A (CST), eIF4G (CST), 4EBP1 (CST), p-4EBP1 (Thr37/46, CST), KLF5 (Abcam), DENR (GeneTex), CACUL1 (GeneTex) FLAG (Sigma), RPS15 (Abcam), PTEN (CST), synaptophysin (CST), chromogranin A (Abcam). […] Signal detection was performed using the ChemiDoc Touch Imaging System (Bio-Rad) or standard film, and quantified using ImageJ.

[10] = castrated mice, Monday-Friday, versus vehicle

O=C(O)c1cc(-c2ccc(/C=C3/SC(=S)N(Cc4ccccc4)C3=O)o2)ccc1Cl [4E2RCat, 5-[5-[(E)-(3-Benzyl-4-oxo-2-sulfanylidene-1,3-thiazolidin-5-ylidene)methyl]furan-2-yl]-2-chlorobenzoic acid]
effect on cell proliferation [1]: negligible effects
effect on cell proliferation [2]: profound changes
sensitivity of proliferation to eIF4E-eIF4G disruption [3]: more sensitive
eIF4F complex formation (proximity ligation assay) [4]: disrupt eIF4F complex formation
eIF4F complex formation (proximity ligation assay) [5]: disrupt eIF4F complex formation

O=C(O)C(Cc1ccccc1[N+](=O)[O-])=NNc1nc(-c2ccc(Cl)c(Cl)c2)cs1 [4EGI-1, α-[2-[4-(3,4-Dichlorophenyl)-2-thiazolyl]-hydrazinylidene]-2-nitrobenzene-propanoic acid]
effect on cell proliferation [1]: negligible effects
effect on cell proliferation [2]: profound changes
sensitivity of proliferation to eIF4E-eIF4G disruption [3]: more sensitive

CNC(=O)c1ccc(N2C(=S)N(c3ccc(C#N)c(C(F)(F)F)c3)C(=O)C2(C)C)cc1F [enzalutamide]
4ebp1 transcript expression [6]: does not impact

O=C(O)c1ccc(N2C(=O)/C(=C/c3ccc(-c4ccc([N+](=O)[O-])cc4)o3)C=C2c2ccccc2)cc1 [4E1RCat, 4-[(3E)-3-[[5-(4-nitrophenyl)furan-2-yl]methylidene]-2-oxo-5-phenylpyrrol-1-yl]benzoic acid]
toxicity to mice (body weight) (AR− APIPC xenograft; castrated NSG mice): without overt toxicity
survival (AR− APIPC xenograft; [10]): improvement
tumor growth (AR− APIPC xenograft; [10]): marked decrease
toxicity to mice (body weight) ([7]; castrated NSG mice): without overt toxicity
survival [7, 10]: improvement
tumor growth [7, 10]: marked decrease
tumor growth (sensitivity of the model) [8]: completely insensitive

C[C@]12CCC(=O)C[C@@H]1CC[C@@H]1[C@@H]2CC[C@]2(C)[C@@H](O)CC[C@@H]12 [DHT, dihydrotestosterone]
de novo protein synthesis (puromycin incorporation) [9]: decreases
